# In patent US20070197452A1, “Treatment of amyloid-related diseases” (priority 2006, published 2007):
# Experiments:
# [1] = test system: transgenic TauP301L mouse model of frontotemporal dementia; test: Astrogliosis in transgenic TauP301L mice; type: in vivo; conditions: transgenic Tau (P301L) mice
# Protocol: Gliosis Quantitation. Five randomly selected, evenly spaced, sagittal sections were collected from paraformaldehyde-fixed and frozen hemispheres of treated and control mice. Sections were immunolabelled for astrocytes with anti-rat GFAβ IgG2a (Dako; diluted 1:50) and for microglia with anti-rat CD68 IgG2b (Dako; 1:50). Digital images were captured using a Coolsnap digital camera (Photometrics, Tuscon, Ariz.) mounted to a Zeiss, Axioscope 2 Plus microscope. Images were analysed using Openlab 3.08 imaging software (Improvision, Lexington Mass.). Quantification of gliosis. Five randomly selected, evenly spaced sagittal sections from paraformaldehyde-fixed and frozen hemispheres of treated and control mice were collected. Sections were immunolabeled for astrocytes with an antibody against rat GFAβ IgG2a (Dako; diluted 1:50) and for microglia with an antibody to rat CD68 IgG2b (Dako; 1:50). Digital images were captured using a Coolsnap digital camera (Photometrics) mounted to a Zeiss, Axioscope 2 Plus microscope. Images were analyzed using Openlab 3.08 imaging software (Improvision).
# [2] = test system: long term potentiation (LTP) in mouse hippocampal slices; test: Long term potentiation in hippocampal slices with 7PA2 conditioned medium; type: cell-based
# Protocol: Long Term Potentiation. Field potentials were recorded in CA1 of mouse hippocampus by standard procedures. Swiss Webster mice between the ages of P16 and P26 were anesthetized with isoflurane. […] The hippocampus from each hemisphere was isolated and 350 μm coronal sections were made. […] Once placed in the chamber, slices were continuously perfused by a closed loop containing 15 ml of ACSF to conserve the oligomeric Aβ. […] A bipolar stimulating electrode (World Precision Inst.) was placed in the Schaffer collaterals to deliver baseline stimuli and tetani. A borosilicate glass recording electrode (2-4 MΩ) containing ACSF was positioned approximately 75-200 μm from the stimulating electrode. […] Test stimuli were delivered at 0.05 Hz. To induce LTP, 4 tetani (100 Hz for 1 second) were delivered 5 minutes apart. Field potential responses were amplified 10× using an Axopatch 200B. The data was sampled at 10 kHz and filtered at 2 kHz. Traces were analyzed using pClamp 9.2. The slope of the field potential was estimated using approximately 10-60% of the total response.
structure (smiles),measurement,setting,value
"OC1C(O)C(O)C(O)C(O)C1O (stereo not shown) [scyllo-cyclohexanehexol, 1,3,5/2,4,6-(scyllo-) cyclohexanehexol]",astrogliosis,[1],did not prevent the astrogliosis
same,astrogliosis,[1]; listed as Scyllo-cyclohexanehexol,no effect
same,synaptic response in the absence of a potentiating tetanus,"[2]; baseline transmission, data not shown",did not change synaptic response
same,direct effect on LTP,[2]; compound-treated medium from plain CHO cells,no direct effect on LTP
